US20240197687A1, “METHODS OF TREATING NEUROINFLAMMATION AND INHIBITING MONOAMINE OXIDASE-A AND RESTORING/UPREGULATING/INCREASING IL-13 AND AND PGC-1 BY ADMINISTERING ORAL DOSAGE FORM CONTAINING MICRONIZED AND NONMICRONIZED PARTICULATE METAXALONE, ALGINIC ACID AND PROPYLENE GLYCOL ALGINATE” (Primus Pharmaceuticals, Inc., priority 2022, published 2024)

Tests used:
MAO-A = target: T1, MAO-A (Homo sapiens, UniProt P21397); assay: MAO-A activity assay (MAO-GLO bioluminescent) in IL-1β-stimulated microglial cells; format: cell-based; conditions: chemiluminescence assay, metaxalone 10, 20, 40 μg/mL, dose-dependent, p<0.0001 vs. IL-1β
T1 construct: MAO-A was constitutively expressed in microglia cells; endogenous in cells; host or cells: HMC3 human microglial cells
T1 sequence (P21397 1-527): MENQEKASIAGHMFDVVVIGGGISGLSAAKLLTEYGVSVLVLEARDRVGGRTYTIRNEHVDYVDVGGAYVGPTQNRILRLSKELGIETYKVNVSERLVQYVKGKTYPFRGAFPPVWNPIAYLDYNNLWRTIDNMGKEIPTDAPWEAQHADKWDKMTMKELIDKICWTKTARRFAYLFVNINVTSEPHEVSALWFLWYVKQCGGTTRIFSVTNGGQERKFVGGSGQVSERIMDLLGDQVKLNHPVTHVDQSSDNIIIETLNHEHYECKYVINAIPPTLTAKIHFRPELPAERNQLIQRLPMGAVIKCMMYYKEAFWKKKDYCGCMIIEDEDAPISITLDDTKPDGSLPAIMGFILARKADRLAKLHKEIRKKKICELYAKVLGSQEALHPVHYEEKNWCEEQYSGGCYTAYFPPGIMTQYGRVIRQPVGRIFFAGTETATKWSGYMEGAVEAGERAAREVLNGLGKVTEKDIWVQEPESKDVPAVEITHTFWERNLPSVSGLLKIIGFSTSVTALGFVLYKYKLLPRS
Description: MAO-A Activity Assay. MAO-A activity was evaluated by a two-step bioluminescent assay methodology, as previously described (See, Lin, Y. C. et al., MAO-A novel decision maker of apoptosis and autophagy in hormone refractory neuroendocrine prostate cancer cells. Sci. Rep. 2017, 7, 46338) using a MAO-GLO™ assay kit from Promega (Madison, WI, USA). The produced amount of signal (light intensity) was measured using a microplate luminometer (Multilabel Counter Victor3™, PerkinElmer Life Sciences). Human recombinant MAO-A enzyme was used as a positive control. The results are given as relative light units after the background was subtracted.

[1] = target: T2, monoamine oxidase A (MAO-A) (Homo sapiens, UniProt P21397); conditions: cited from earlier work
T2 sequence (P21397 1-527): T1 sequence (P21397 1-527)

[2] = test system: CYP1A2, CYP2B6, CYP2C9, CYP2C19, CYP2D6, CYP2E1, CYP3A; conditions: cited from earlier work
[3] = test system: Mouse Macrophages RAW264.7 cells; conditions: LPS-stimulated mouse macrophages; cited from earlier work
HMC3 cells = assay: Malonaldehyde (MDA) assay, lipid peroxidation in HMC3 cells; format: cell-based, Human; conditions: IL-1β-stimulated HMC3 cells; metaxalone 10, 20, 40 μg/mL; p<0.0001 vs. IL-1β
From the text: Malonaldehyde Assay. Metaxalone antioxidant effects were examined in HMC3 cells by measuring malonaldehyde (MDA) levels as a marker of lipid peroxidation, as previously described in detail. (See, Ceravolo, I. Et al., Health Potential of Aloe vera against Oxidative Stress Induced Corneal Damage: An “In Vitro” Study. Antioxidants 2021, 10, 318).

HMC3 microglial cells [4] = assay: RT-qPCR mRNA expression in IL-1β-stimulated HMC3 microglial cells; format: cell-based, Human; conditions: metaxalone 10, 20, 40 μg/mL, p<0.0001 vs. IL-1β
Description: Human microglial HMC3 cell line (CRL-3304) was obtained from ATCC (American Type Culture Collection; Manassas, VA, USA). Cells were cultured in Eagle's minimum essential medium (EMEM) with a supplement of 10% fetal bovine serum (FBS) and 1% antibiotic mixture, and were incubated at 37° C. with 5% of CO2. Both medium and supplements were provided by ATCC (Manassas, VA, USA). Cells were seeded in 6-well plates at a density of 4×10^5 cells/well. A stock solution of metaxalone (Sigma Aldrich, Milan, Italy) was prepared by dissolving metaxalone in DMSO. Sixteen hours after plating (time 0), metaxalone was added at the doses of 10, 20, and 40 μg/mL 1 h following IL-1β stimulation (5 ng/mL; Sigma Aldrich, Milan, Italy). After 6 h cells were harvested for mRNA evaluation. In a separate set of plates, cells were incubated for 24 h before MTT assay to evaluate cell viability. The dose-response curve for IL-1β stimulation can be found at Supplemental FIG. S1. Total RNA was extracted from human microglial HMC3 for RT-qPCR using Trizol LS reagent (Invitrogen, Carlsbad, CA, USA). Two μg of total RNA was reverse transcribed in a final volume of 20 μL using a Superscript VILO kit (Invitrogen, Carlsbad, CA, USA). […] The final primer concentration used to carry out the analysis was 10 μM. Samples from each group were run in duplicate and β-actin was used as an endogenous control. Results were calculated using the 2-ΔΔCT method and expressed as n-fold increase in gene expression using control group as calibrator. […]. et al. Activation of A2A Receptor by PDRN Reduces Neuronal Damage and Stimulates WNT/β-CATENIN Driven Neurogenesis in Spinal Cord Injury. Front. Pharmacol. 2018, 9, 506. Pizzino, G. et al. Effects of the antagomiRs 15b and 200b on the altered healing pattern of diabetic mice. Br. J. Pharmacol. 2018, 175, 644-655.

HMC3 microglial cells [5] = test system: HMC3 microglial cells

MAO-A activity (MAO-A): suppressed
SMILES: Cc1cc(C)cc(OCC2CNC(=O)O2)c1 (stereo not shown) [metaxalone, 5-[(3,5-dimethylphenoxy)methyl]-2-oxazolidinone]
MAO-A inhibition [1]: reported to inhibit | CYP induction [2]: inducer of CYP1A2 and CYP3A4 | CYP inhibition [2]: inhibitor of CYP1A2, CYP2B6, CYP2C9, CYP2C19, CYP2D6, CYP2E1, and CYP3A | CYP substrate status [2]: substrate of CYP1A2 and CYP2C19 | inflammatory cytokines [3]: robust reduction | MDA levels (HMC3 cells): significant reduction | IL-6 mRNA expression (HMC3 microglial cells [4]; IL-1β (5 ng/mL)-stimulated HMC3 cells (IL-6 increased by IL-1β), 6 h, dose-dependent): significantly reverted | IL-13 mRNA expression (HMC3 microglial cells [4]; IL-1β (5 ng/mL)-stimulated HMC3 cells (IL-13 decreased by IL-1β), 6 h, dose-dependent): significantly reverted | TNF-α mRNA expression (HMC3 microglial cells [4]; IL-1β (5 ng/mL)-stimulated HMC3 cells (TNF-α increased by IL-1β), 6 h, dose-dependent): significantly reverted | NF-κB mRNA expression (HMC3 microglial cells [4]; IL-1β-stimulated HMC3 cells, dose-dependent): significantly reduced | NRF-2 mRNA expression (HMC3 microglial cells [4]; IL-1β-stimulated HMC3 cells): significantly upregulated | PGC-1α mRNA expression (HMC3 microglial cells [4]; IL-1β-stimulated HMC3 cells): marked increase | PPARγ mRNA expression (HMC3 microglial cells [4]; IL-1β-stimulated HMC3 cells): marked increase | MAO-A mRNA expression (HMC3 microglial cells [4]; IL-1β-stimulated microglia cells, dose-dependent): markedly reduced | cell viability (MTT) (HMC3 microglial cells [5]): did not produce any toxic effect
